Laboratory results reported in ChEMBL document CHEMBL4406813, “2-Amino-2,3-dihydro-1H-indene-5-carboxamide-Based Discoidin Domain Receptor 1 (DDR1) Inhibitors: Design, Synthesis, and in Vivo Antipancreatic Cancer Efficacy” (J Med Chem, 2019).

Assays:
[1] = in vivo; conditions: Sprague-Dawley, rat, iv, 5 mg/kg
[2] = in vivo; conditions: Sprague-Dawley, rat, po, 25 mg/kg
[3] = in vivo; conditions: Sprague-Dawley, rat, iv, 5 mg/kg; remark: listed apart in the source

A Cmax [1] of 14700 ng/mL, a Cmax [2] of 15400 ng/mL and an AUC(0-inf) [3] of 16900 ng·h/mL were found for `Cc1cn(-c2cc(NC(=O)c3ccc4c(c3)C[C@H](N(C)c3cncnc3)C4)cc(C(F)(F)F)c2)cn1` in this work.
